Data taken from US20120238554A1, “SALTS OF POTASSIUM ATP CHANNEL OPENERS AND USES THEREOF” (priority 2007, published 2012).
Converted amounts (≈) assume the structure as drawn.

What was measured:
[1] = system: cardiomyocytes from the infarct border zone; details: cardiomyocytes from the infarct border zone (74 ms without, sham 41 ms); cited from earlier work
[2] = Form conversion and degradation under thermal stress (60° C.); details: 60° C., closed, protected from light, 7 and 14 days
Description: Studies were also conducted to evaluate the likelihood for conversion and degradation under thermal stress.

obese subjects = experiment: Single 200 mg dose study: fasting glucose, insulin, NEFA, serum Na, K, creatinine; details: either formulation
Description: Three exploratory endpoints were evaluated in the study. Blood glucose, insulin and non-esterified fatty acids (NEFA) were measured prior to dosing and at 1, 3, 6, 9, 12, 24, and 48 hours post dosing. Blood glucose and insulin levels were also assessed at end of study. Data collected at times 1, 3, 24, and 48 hours after dose administration were obtained under fasting conditions. The remaining data points were post-prandial measures.

[3] = system: patients with primary pulmonary hypertension; details: cited from earlier work
[4] = system: Zucker Diabetic Fatty (ZDF) rats; details: 150 mg/kg/day, 8 weeks; cited from earlier work
[5] = Slurry studies of inter-conversion of the solid form; details: room temperature, no light, 14 days; water, isopropyl alcohol, dichloromethane, toluene
[6] = system: barbital-anesthetized open-chest pigs; details: 3.5 mg/kg IV, 30 min occlusion, 3 h reflow, n=7; cited from earlier work
[7] = Moisture sorption analysis; type: physicochemical
Description: Moisture Sorption Analysis was performed with a Hiden IGAsorp Moisture Sorption Instrument, Samples were first dried at 0% relative humidity at 25° C. until an equilibrium weight was reached, or for a maximum of 4 hours. Samples were then subjected to an isothermal (25° C.) scan from 10-90% relative humidity in steps of 10%. The samples were allowed to equilibrate to an asymptotic weight at each point for a maximum of 4 hours. Following absorption, a desorption scan from […] relative humidity (at 25° C.) was run in steps of −10%, again allowing a maximum of 4 hours for the samples to equilibrate. The resulting samples after desorption were dried at 80° C. for two hours and analyzed by XRPD.

[8] = Solubility in 100 mM phosphate buffer with titration, 18 h slurry (Table 15); type: physicochemical; details: thermodynamic from solid, ambient
Description: Each determination was carried out in duplicate, slurrying each sample in a 100 mM phosphate buffer solution, pH 7.00. […] After this time all samples were centrifuged, and the supernatant was diluted with mobile phase (MeCN/Water.).

[9] = system: patients with elevated fasting triglycerides; experiment: Diazoxide treatment of hypertriglyceridemia, 7 to 49 days: fasting triglycerides, LDL-cholesterol; type: in vivo, human; details: for fasting triglycerides reduced: titrated patients
Description: All patients were dosed once per day for an uninterrupted period of time.
Patients were placed on a low fat diet at the start of treatment which continued to the end of treatment.
Each subject's baseline circulating triglyceride level was calculated as the average of two measurements of fasting triglycerides taken approximately two weeks apart, with the second taken predose on the first day of treatment.

[10] = system: person with pulmonary hypertension; details: oral diazoxide over six years; cited from earlier work

CC1=NS(=O)(=O)c2cc(Cl)ccc2N1 [diazoxide, 7-chloro-3-methyl-2H-1,2,4-benzothiadiazine 1,1 dioxide]
action potential duration [1]: 42 ms
form conversion and degradation under thermal stress (XRPD, DSC) [2]: no conversion or degradation
fasting glucose (obese subjects; 24 or 48 hours after dose administration): no evidence for a significant increase in fasting glucose
fasting insulin (obese subjects; after the single 200 mg dose): no evidence for a reduction in fasting insulin
change in pulmonary artery pressure ([3]; injected into the pulmonary artery, nine patients): no significant change
patients unable to tolerate the drug ([3]; oral diazoxide given to seven patients): Five
hepatic triglycerides, long chain acyl-CoA and cholesterol contents [4]: decreased
inter-conversion of the solid form in slurry [5]: did not convert to alternate crystal forms
Infarct size (percentage of the area at risk) [6]: 14.6±7.4%
crystalline form after moisture sorption/desorption (XRPD) [7]: same crystalline form
hydrate formation (hysteresis upon desorption) ([7]; 25° C.): does not form a stable hydrate
Moisture Sorption (hygroscopicity) ([7]; 25° C., listed as free form diazoxide): non-hygroscopic
water absorbed ([7]; 60% RH, 25° C.): approximately 0.04 wt %
water absorbed ([7]; 90% RH, 25° C.): ~0.20 wt %
solubility at 18 h ([8]; pH 6.9, aqueous buffer, pH after slurry 6.90): 70 µg/mL (≈ 303 µM)
solubility at 18 h ([8]; pH 7.31, aqueous buffer, pH after slurry 7.31): 70 µg/mL (≈ 303 µM)
reductions in fasting triglycerides ([9]; 100 mg per day diazoxide equivalent as Diazoxide Choline Controlled-Release Tablets, 7 days): 38%
reductions in fasting triglycerides ([9]; 100 mg per day diazoxide equivalent, 14 days): 18%
reductions in fasting triglycerides ([9]; 150 mg for 5 days then 300 mg for 9 days, at 7 and 14 days): 50%
reductions in fasting triglycerides ([9]; 200 mg per day diazoxide equivalent, 7 days): 23%
reductions in fasting triglycerides ([9]; 200 mg per day diazoxide equivalent, 14 days): 20%
reductions in fasting triglycerides ([9]; 300 mg per day diazoxide equivalent, 7 days): 18%
reductions in fasting triglycerides ([9]; 300 mg per day diazoxide equivalent, 14 days): 29%
reductions in fasting triglycerides ([9]; 400 mg per day diazoxide equivalent, 7 days): 50%
rise in LDL-cholesterol ([9]; Patient 13, day 21): 6.7%
rise in LDL-cholesterol ([9]; Patient 13, day 42): 11%
reductions in LDL-cholesterol ([9]; patient 8): −8.6%
reductions in LDL-cholesterol ([9]; patient 9): −15.3%
fasting triglycerides reduced ([9]; end of treatment with 150 mg): 21%
fasting triglycerides reduced ([9]; end of treatment with 200 mg): 31%
fasting triglycerides reduced ([9]; end of treatment with 250 mg): 38%
fasting triglycerides reduced ([9]; end of treatment with 300 mg): 38%
fasting triglycerides reduced ([9]; end of treatment with 350 mg): 49%
pulmonary arterial pressure [10]: reduced to normal levels
